These results are taken from ChEMBL document CHEMBL1201862, “PubChem BioAssay data set” (2004).

Assay [1] deals with Glucose-6-phosphate 1-dehydrogenase (Homo sapiens, UniProt P11413). The assay can be described thus: inhibition of Homo sapiens G6PD, dose series – biochemical, fluorescence, selectivity assay for P. falciparum G6PD inhibitor project, dose response (AID 504792). Format: functional.
The target in assay [2] is Eukaryotic translation initiation factor 4E (Mus musculus, UniProt P63073). As to the kind of experiment: blockers of eIF4G binding by eIF4E – biochemical, TR-FRET, dose response (AID 855).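 Also: potency for disrupting eIF4E binding to eIF4GI seen as loss of FRET.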 The format is functional.
A short description of assay [3]: viability loss in HeLa cells – cytotoxicity control for MgcRacGAP inhibitor project, dose response (AID 624300). Format: functional.
Assay [4] addresses Peroxisome proliferator-activated receptor gamma/Nuclear receptor coactivator 3 (Homo sapiens, UniProt P37231). The format is functional.
Assay [5] in a line: Fluorescence-based cell-based high throughput dose response assay for inhibitors of the interaction of nucleotide-binding oligomerization domain containing 2 (NOD2) and the receptor-interacting serine-threonine kinase 2 (RIPK2). The format is functional. The settings on record: Homo sapiens.
Assay [6] is described as follows: IC50 of Artemis nuclease activity blockers – biochemical, fluorescence intensity, dose response (AID 720701).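 Also: Artemis endonuclease enzyme.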 Format: functional.
Assay [7] can be described thus: A549 cell cytotoxicity, dose response, cytotoxicity control, plate reader, cherry-pick, antagonist series (AID 743412). The format is functional, cell-based.
Assay [8] can be described thus: toxicity toward HepG2 liver cells – cell-based, plate reader, cherry-pick, antagonist series, cytotoxicity control, dose response (AID 743416). The format is functional.
A short description of assay [9]: blockade of melanocortin 4 receptor signaling – cell-based, plate reader, cherry pick, counter-screen for LGR2 antagonist project, dose response (AID 743444).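 Also: transfected HEK 293 cells stimulated with alpha-MSH peptide; potency of inhibitors of the alpha-MSH evoked signal.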 Format: functional. In general terms: Counterscreens check selectivity or assay interference.
The next assay has as its target T1, Caspase-3 (Homo sapiens, UniProt P42574).
T1 sequence (P42574 whole entry): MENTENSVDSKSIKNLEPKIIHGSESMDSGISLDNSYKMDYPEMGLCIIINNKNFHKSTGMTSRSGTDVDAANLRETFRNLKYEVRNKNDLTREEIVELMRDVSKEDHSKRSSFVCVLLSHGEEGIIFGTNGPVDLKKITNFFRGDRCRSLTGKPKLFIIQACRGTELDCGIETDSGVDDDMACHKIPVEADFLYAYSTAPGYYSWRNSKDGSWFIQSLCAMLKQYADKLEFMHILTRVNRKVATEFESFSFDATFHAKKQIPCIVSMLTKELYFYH
The assay can be described thus: SAR Analysis of small molecule inhibitors of Sentrin-specific proteases (SENPs) using a Caspase-3 Selectivity assay. [Related pubchem assays (depositor defined):AID2540, AID2599, AID434973, AID489001]. Format: functional.

Another assay deals with HEK293. As to the kind of experiment: cells. The format is functional, cell-based. Particulars: Homo sapiens.
Assay [10] deals with Serine/threonine-protein kinase PLK1 (Homo sapiens, UniProt P53350). The format is functional.
The target in assay [11] is Calcium/calmodulin-dependent protein kinase type 1 (Homo sapiens, UniProt Q14012). The format is functional.
Another assay addresses Ephrin type-A receptor 2 (Homo sapiens, UniProt P29317). Format: functional.
Assay [12] has as its target Vascular endothelial growth factor receptor 2 (Homo sapiens, UniProt P35968). Format: functional.
The target in assay [13] is Protein kinase C gamma type (Homo sapiens, UniProt P05129). Format: functional.
Assay [14] has as its target ALK tyrosine kinase receptor (Homo sapiens, UniProt Q9UM73). The format is functional.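 Also: ALK tested as one member of a kinase panel screen.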
The target of assay [15] is Cyclin-dependent kinase 7 (Homo sapiens, UniProt P50613). Format: functional.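 Also: value comes from a kinome-wide kinase profiling panel in which CDK7 is one member.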
In assay [16] the target is Tyrosine-protein kinase receptor TYRO3 (Homo sapiens, UniProt Q06418). Format: functional.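 Also: TYRO3 value obtained as one member of a kinome-wide profiling panel.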
Assay [17] concerns the target Ribosomal protein S6 kinase alpha-5 (Homo sapiens, UniProt O75582). Format: functional.
In assay [18] the target is High affinity nerve growth factor receptor (Homo sapiens, UniProt P04629). Format: functional.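 Also: NTRK1 tested as one member of a kinome-wide profiling panel.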
Assay [19] concerns the target Tyrosine-protein kinase JAK3 (Homo sapiens, UniProt P52333). Format: functional.
For assay [20], the target named is Serine/threonine-protein kinase pim-3 (Homo sapiens, UniProt Q86V86). The format is functional.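 Also: value obtained as one member of a broad kinase panel profiling effort.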
Assay [21] deals with Dual specificity protein kinase CLK2 (Homo sapiens, UniProt P49760). The format is functional.
For assay [22], the target named is Hepatocyte growth factor receptor (Homo sapiens, UniProt P08581). Format: functional.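 Also: kinase panel profiling across the kinome, with MET as the panel member.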
The target in assay [23] is Serine/threonine-protein kinase TAO1 (Homo sapiens, UniProt Q7L7X3). The format is functional.
In assay [24] the target is Serine/threonine-protein kinase TBK1 (Homo sapiens, UniProt Q9UHD2). As to the kind of experiment: Navigating the Kinome. Panel member name: TBK1. The format is functional.
For assay [25], the target named is Serine/threonine-protein kinase PAK 1 (Homo sapiens, UniProt Q13153). The format is functional.
Assay [26] has as its target Death-associated protein kinase 3 (Homo sapiens, UniProt O43293). Format: functional.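 Also: measured as one member of a kinome-wide profiling panel.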
Assay [27] deals with Tyrosine-protein kinase ITK/TSK (Homo sapiens, UniProt Q08881). The format is functional.
For assay [28], the target named is Proto-oncogene tyrosine-protein kinase Src (Homo sapiens, UniProt P12931). Format: functional.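 Also: SRC entry within a kinome-wide kinase profiling panel.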
Assay [29] has as its target MAP kinase-activated protein kinase 5 (Homo sapiens, UniProt Q8IW41). The format is functional.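 Also: measured as one member of a kinome panel.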
Assay [30] deals with Serine/threonine-protein kinase Chk2 (Homo sapiens, UniProt O96017). The format is functional.
For assay [31], the target named is Mitogen-activated protein kinase 12 (Homo sapiens, UniProt P53778). Format: functional.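 Also: measured as one member of a kinome-wide kinase profiling panel.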
Assay [32] concerns the target Tyrosine-protein kinase Lyn (Homo sapiens, UniProt P07948). The format is functional.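 Also: lyn as one member of a kinase panel.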
For assay [33], the target named is Receptor-type tyrosine-protein kinase FLT3 (Homo sapiens, UniProt P36888). The format is functional.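 Also: FLT3 was tested as one member of a kinome-wide kinase panel.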
The target of a further assay is Misshapen-like kinase 1 (Homo sapiens, UniProt Q8N4C8). Format: functional.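 Also: kinome panel screen with MINK as the panel member.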
The subject of the next assay is BJ. The assay can be described thus: BJ-TERT fibroblast viability loss – cell-based, RAS-independent, luminescence, dose response (AID 1933). Particulars: Homo sapiens. The format is functional.
The target of assay [34] is G2/mitotic-specific cyclin-B1 (Homo sapiens, UniProt P14635). As to the kind of experiment: Counterscreen assay for inhibitors of Wee1 degradation: dose response cell-based assay to identify inhibitors of cyclin B degradation. [Related pubchem assays: 1410, 1321 ]. The format is functional.
Assay [35] can be described thus: Trypanosoma cruzi growth suppression in host cells – NIH3T3 host cells, beta-gal luminescence, confirmation (AID 2044).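 Also: intracellular parasites grown in NIH/3T3 mouse fibroblasts as host cells; luminescent beta-galactosidase reporter signal from transgenic T. cruzi replicating inside host cells; inhibitors lower the luminescence signal.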 Format: functional, cell-based.
The nature of assay [36]: NIH3T3 cell viability loss – ATP luminescence, mouse fibroblasts, counter-screen, dose response (AID 2010).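 Also: cells exposed to compound for about 90 hours before reading.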 Format: functional, cell-based.
A short description of assay [37]: DRD fibroblast viability loss – cell-based, non-viral oncogenic, luminescence, dose response (AID 1934). The format is functional. The settings on record: Homo sapiens.

Molecules are shown by their SMILES. Active and inactive are the calls of the source.

Serine/threonine-protein kinase TBK1, sequence (Q9UHD2 whole entry): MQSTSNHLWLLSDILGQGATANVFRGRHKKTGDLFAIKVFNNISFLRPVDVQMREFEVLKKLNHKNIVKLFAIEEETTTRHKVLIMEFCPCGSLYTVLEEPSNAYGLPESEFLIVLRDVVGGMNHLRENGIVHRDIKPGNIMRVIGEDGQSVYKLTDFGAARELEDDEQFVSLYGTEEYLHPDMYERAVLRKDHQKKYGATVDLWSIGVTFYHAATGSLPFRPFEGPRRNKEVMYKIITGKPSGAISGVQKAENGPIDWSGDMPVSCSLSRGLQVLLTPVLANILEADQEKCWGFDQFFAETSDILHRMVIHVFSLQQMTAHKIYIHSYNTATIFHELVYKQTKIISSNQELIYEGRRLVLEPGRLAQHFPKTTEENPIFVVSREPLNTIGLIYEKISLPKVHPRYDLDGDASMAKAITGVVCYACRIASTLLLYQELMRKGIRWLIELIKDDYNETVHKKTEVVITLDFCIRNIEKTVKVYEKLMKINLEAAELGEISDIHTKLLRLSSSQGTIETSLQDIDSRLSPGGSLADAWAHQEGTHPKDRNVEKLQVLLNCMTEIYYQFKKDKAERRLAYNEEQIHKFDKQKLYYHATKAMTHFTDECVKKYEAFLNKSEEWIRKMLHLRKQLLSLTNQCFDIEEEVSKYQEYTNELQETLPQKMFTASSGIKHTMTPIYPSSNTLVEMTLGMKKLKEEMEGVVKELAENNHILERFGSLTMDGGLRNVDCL
Vascular endothelial growth factor receptor 2, sequence (P35968 whole entry): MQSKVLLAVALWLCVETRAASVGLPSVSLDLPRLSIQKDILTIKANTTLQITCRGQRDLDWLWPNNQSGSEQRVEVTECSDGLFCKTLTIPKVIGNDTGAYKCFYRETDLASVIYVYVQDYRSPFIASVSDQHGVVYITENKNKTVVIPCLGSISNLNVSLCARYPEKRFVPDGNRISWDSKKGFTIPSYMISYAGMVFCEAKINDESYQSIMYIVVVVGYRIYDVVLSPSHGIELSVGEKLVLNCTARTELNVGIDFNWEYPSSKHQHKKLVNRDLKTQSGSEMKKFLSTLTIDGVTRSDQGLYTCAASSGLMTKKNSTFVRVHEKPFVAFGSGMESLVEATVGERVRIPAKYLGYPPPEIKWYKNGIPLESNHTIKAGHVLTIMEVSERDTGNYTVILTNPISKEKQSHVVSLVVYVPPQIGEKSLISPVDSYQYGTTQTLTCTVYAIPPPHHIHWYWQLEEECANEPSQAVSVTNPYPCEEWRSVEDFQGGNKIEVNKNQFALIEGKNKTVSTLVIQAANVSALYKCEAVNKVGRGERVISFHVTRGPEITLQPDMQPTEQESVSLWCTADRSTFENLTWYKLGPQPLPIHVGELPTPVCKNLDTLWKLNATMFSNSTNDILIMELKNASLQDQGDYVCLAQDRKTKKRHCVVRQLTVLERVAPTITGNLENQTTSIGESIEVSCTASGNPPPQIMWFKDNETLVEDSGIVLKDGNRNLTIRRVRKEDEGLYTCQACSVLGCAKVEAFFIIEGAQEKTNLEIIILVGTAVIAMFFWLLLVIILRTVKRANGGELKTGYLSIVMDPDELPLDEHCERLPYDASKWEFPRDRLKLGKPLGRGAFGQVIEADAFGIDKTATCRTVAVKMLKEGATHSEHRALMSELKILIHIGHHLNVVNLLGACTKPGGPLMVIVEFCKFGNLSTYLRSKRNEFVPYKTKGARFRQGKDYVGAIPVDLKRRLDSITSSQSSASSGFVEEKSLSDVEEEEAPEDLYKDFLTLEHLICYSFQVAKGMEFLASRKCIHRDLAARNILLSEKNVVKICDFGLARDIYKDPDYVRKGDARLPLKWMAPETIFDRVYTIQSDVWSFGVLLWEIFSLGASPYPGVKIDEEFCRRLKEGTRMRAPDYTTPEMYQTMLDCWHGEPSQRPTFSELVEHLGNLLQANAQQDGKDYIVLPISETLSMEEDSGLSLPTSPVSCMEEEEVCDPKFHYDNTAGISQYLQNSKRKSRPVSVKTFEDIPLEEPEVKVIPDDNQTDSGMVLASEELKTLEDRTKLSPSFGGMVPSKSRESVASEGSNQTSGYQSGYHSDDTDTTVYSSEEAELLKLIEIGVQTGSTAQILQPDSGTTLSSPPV
Serine/threonine-protein kinase Chk2, sequence (O96017 whole entry): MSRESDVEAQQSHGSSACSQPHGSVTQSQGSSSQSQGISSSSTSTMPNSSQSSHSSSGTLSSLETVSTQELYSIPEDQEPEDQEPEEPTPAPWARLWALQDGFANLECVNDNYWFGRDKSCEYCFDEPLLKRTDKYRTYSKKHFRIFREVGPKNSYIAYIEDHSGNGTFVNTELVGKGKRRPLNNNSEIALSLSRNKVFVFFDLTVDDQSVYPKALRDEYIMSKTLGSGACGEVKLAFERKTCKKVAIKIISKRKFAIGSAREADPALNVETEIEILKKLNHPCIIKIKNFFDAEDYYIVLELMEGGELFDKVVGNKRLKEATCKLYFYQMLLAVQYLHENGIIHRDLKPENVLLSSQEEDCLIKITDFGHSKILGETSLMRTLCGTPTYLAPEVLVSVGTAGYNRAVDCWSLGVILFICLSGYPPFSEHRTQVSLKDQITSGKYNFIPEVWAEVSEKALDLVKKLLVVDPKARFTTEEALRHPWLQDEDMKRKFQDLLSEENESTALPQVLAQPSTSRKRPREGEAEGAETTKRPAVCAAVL
Misshapen-like kinase 1, sequence (Q8N4C8 whole entry): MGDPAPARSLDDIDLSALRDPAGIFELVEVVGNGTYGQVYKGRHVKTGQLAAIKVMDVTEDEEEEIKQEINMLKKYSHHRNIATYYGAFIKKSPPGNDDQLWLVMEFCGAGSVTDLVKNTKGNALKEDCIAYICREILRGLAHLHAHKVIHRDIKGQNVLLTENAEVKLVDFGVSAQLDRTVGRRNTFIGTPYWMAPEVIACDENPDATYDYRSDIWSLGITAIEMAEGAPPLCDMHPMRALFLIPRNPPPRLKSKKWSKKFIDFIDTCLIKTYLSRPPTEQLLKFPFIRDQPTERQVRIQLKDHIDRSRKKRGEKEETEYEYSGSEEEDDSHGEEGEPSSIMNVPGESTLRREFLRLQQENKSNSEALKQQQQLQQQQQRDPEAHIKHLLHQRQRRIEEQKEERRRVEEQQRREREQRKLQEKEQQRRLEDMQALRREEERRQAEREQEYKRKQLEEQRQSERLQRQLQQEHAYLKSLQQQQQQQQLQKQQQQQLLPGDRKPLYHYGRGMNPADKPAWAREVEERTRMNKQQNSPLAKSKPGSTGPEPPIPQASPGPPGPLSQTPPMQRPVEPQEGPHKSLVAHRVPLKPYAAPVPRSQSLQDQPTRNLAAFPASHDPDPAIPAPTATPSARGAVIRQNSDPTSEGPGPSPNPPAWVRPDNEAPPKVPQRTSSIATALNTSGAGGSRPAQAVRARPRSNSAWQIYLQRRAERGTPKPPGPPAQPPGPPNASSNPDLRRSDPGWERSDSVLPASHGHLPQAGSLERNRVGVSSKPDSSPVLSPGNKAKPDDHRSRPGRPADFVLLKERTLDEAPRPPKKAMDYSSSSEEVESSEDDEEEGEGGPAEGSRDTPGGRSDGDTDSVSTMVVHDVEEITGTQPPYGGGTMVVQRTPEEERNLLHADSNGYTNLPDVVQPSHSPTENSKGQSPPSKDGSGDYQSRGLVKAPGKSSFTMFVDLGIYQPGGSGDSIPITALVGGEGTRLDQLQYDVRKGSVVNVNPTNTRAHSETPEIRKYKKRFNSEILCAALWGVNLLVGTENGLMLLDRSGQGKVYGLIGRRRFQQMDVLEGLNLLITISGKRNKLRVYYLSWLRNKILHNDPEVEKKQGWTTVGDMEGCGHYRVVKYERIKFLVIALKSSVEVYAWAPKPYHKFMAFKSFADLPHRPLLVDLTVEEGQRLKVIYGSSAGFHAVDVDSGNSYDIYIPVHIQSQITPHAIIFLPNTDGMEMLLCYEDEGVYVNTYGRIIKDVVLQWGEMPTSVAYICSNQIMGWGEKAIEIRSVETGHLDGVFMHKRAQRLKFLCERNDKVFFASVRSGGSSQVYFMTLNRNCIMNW
High affinity nerve growth factor receptor, sequence (P04629 whole entry): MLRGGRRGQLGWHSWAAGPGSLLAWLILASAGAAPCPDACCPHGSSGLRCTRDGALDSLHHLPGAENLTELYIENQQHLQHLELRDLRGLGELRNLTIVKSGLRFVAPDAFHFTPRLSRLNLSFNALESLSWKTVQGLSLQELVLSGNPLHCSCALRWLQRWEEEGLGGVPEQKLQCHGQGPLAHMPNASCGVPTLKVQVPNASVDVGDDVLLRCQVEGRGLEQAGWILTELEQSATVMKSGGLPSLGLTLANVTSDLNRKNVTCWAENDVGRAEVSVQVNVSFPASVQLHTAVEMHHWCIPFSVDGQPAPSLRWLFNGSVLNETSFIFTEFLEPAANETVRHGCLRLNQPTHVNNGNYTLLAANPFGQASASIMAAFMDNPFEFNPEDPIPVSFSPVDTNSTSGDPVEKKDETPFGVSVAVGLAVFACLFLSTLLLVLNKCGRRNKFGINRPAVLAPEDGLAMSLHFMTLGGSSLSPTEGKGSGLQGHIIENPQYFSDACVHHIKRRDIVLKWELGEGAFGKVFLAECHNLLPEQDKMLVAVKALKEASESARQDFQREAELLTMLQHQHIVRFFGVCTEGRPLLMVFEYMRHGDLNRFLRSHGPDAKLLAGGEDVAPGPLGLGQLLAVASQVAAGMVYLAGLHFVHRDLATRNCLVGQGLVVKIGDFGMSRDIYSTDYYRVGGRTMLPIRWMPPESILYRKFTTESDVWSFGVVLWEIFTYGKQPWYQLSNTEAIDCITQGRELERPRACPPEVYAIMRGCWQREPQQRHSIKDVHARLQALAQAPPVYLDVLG

A word on the IC50: it is the concentration needed to halve the response being measured. The CC50 is the concentration giving 50% cytotoxicity. By EC50 is commonly meant the midpoint of the concentration-response curve. With `CN(C)c1ncc(C2=C(Cl)C(=O)C(N3CCCC3)=C(Cl)C2=O)s1`, the IC50 in assay [1] was 30.7 µM (inactive); in assay [2] it was > 64 µM (inactive). Further, in [3], the CC50 was 18.7 µM (active). The EC50 in assay [4] is recorded as > 79.4 µM (not active).

As for `Cc1ccc(C(=O)c2c(C)oc3c2C(=O)C(=O)c2ccccc2-3)cc1`, the IC50 in [5] is 6.83 µM (active); in [6] it was 2.2 µM (active).

What is called AC50 is the concentration at which the activity in the assay is half-maximal. Regarding `Cc1cnc(NC(=O)c2sc3ccccc3c2Cl)s1`, the AC50 was 25.4 µM (active) in assay [7], > 52 µM (inactive) in assay [8] and 3.25 µM (active) in [9]. Also, the EC50 in “cells” is > 67.5 µM (inactive). Moreover, the IC50 on Caspase-3 is 3.14 µM (active).

With `O=C1C(O)=C/C(=N\c2ccccc2O)c2ccccc21`, the IC50 in the assay on HEK293 was > 20 µM (inactive).

The term Ki denotes the dissociation constant of the complex between target and ligand, obtained from inhibition or displacement. Consider `O=C1NC(=S)SC1=C1C(=O)Nc2ccc(Br)cc21`, for which the Ki in [10] is 6.31 µM (active); in assay [11], > 3.16 µM (inactive); on Ephrin type-A receptor 2 it was > 3.16 µM (inactive); in assay [12], > 7.94 µM (inactive); in assay [13], > 7.94 µM (inactive); in [14], > 1.26 µM (inactive). For the same compound, the Ki was > 1.58 µM (inactive) in [15]; > 2 µM (inactive) in assay [16]; > 2 µM (inactive) in assay [17]; > 2.51 µM (inactive) in [18]; > 1.58 µM (inactive) in [19]; 0.0501 µM (active) in [20]. For the same compound, the Ki is 7.94 µM (active) in assay [21]; > 3.16 µM (inactive) in assay [22]; 5.01 µM (active) in assay [23]; > 1.58 µM (inactive) in [24]; > 10 µM (inactive) in assay [25]; 0.2 µM (active) in [26]. The Ki in assay [27] is > 1.58 µM (inactive); in assay [28], > 2 µM (inactive); in assay [29] it was > 1.58 µM (inactive); in assay [30], 1.26 µM (active); in assay [31], > 6.31 µM (inactive); in assay [32], > 1.58 µM (inactive). The Ki in assay [33] was 0.158 µM (active); at Misshapen-like kinase 1, > 7.94 µM (inactive).

Turning to `Cc1ccc(Nc2cc(C)nn2-c2nc(C)cc(O)n2)cc1`, the EC50 is 0.549 µM (active) with BJ; > 49.7 µM (not active) in [34]; < 0.1 µM (active) in assay [35]; 0.497 µM (active) in assay [36]; 22.4 µM (active) in assay [37].
